Reference: paper PMC10215302 (Antibiotics, 2023)
Converted amounts (≈) assume the structure as drawn. Like-named read-outs stand apart in the source and are kept apart here.

Columns and labels:
Experiment in all cases: microbe, parasite or virus in culture
Conditions in all cases: Staphylococcus aureus
S. aureus ATCC 29213 = test system: S. aureus ATCC 29213
S. aureus SA0077 = test system: S. aureus SA0077
S. aureus SA0736 = test system: S. aureus SA0736
S. aureus SA0422 = test system: S. aureus SA0422
S. aureus SA0085 = test system: S. aureus SA0085
[1] = ATCC29213, read-out: MIC values
[2] = SA0077, read-out: MIC values, Table S1: SA0077 Abf (passages on antibiotic-free media)
[3] = SA0077, read-out: MIC values, Table S1: SA0077 DAP (derivative after 40 passages on daptomycin)
[4] = SA0077, read-out: MIC values, Table S1: SA0077 VAN (derivative after 40 passages on vancomycin)
[5] = SA0422, read-out: MIC values, Table S1: SA0422 DAP (derivative after 40 passages on daptomycin)
[6] = SA0085, read-out: MIC values, Table S1: SA0085 VAN (derivative after 40 passages on vancomycin)
[7] = ATCC29213, read-out: MIC values, Table S1: ATCC 29213 DAP (derivative after 40 passages on daptomycin)
[8] = ATCC29213, read-out: MIC values, Table S1: ATCC 29213 VAN (derivative after 40 passages on vancomycin)
[9] = SA0736, read-out: MIC values, Table S1: SA0736 VAN (derivative after 40 passages on vancomycin)
[10] = SA0422, read-out: MIC values, Table S1: SA0422 VAN (derivative after 40 passages on vancomycin)

Cn1nnc(-c2ccc(-c3ccc(N4C[C@H](CO)OC4=O)cc3F)cn2)n1 [Tedizolid]
MIC (S. aureus ATCC 29213; [1]): 0.25 µg/mL (≈ 0.675 µM)
MIC (S. aureus SA0077; SA0077, read-out: MIC values): 0.25 µg/mL (≈ 0.675 µM)
MIC (S. aureus SA0077; [2]): 0.125 µg/mL (≈ 0.338 µM)
MIC (S. aureus SA0077; [3]): 0.125 µg/mL (≈ 0.338 µM)
MIC (S. aureus SA0077; [4]): 0.125 µg/mL (≈ 0.338 µM)
MIC (S. aureus SA0736; SA0736, read-out: MIC values): 0.125 µg/mL (≈ 0.338 µM)
MIC (S. aureus SA0422; SA0422, read-out: MIC values): 0.25 µg/mL (≈ 0.675 µM)
MIC (S. aureus SA0422; [5]): 0.125 µg/mL (≈ 0.338 µM)
MIC (S. aureus SA0085; SA0085, read-out: MIC values): 0.5 µg/mL (≈ 1.35 µM)
MIC (S. aureus SA0085; [6]): 0.06 µg/mL (≈ 0.162 µM)

CCC[C@@H]1C[C@@H](C(=O)N[C@@H]([C@H]2O[C@H](SC)[C@H](O)[C@@H](O)[C@H]2O)[C@H](C)Cl)N(C)C1 [Clindamycin]
MIC (S. aureus ATCC 29213; [1]): 0.06 µg/mL (≈ 0.141 µM)
MIC (S. aureus SA0077; SA0077, read-out: MIC values): > 64 µg/mL
MIC (S. aureus SA0736; SA0736, read-out: MIC values): 0.06 µg/mL (≈ 0.141 µM)
MIC (S. aureus SA0422; SA0422, read-out: MIC values): 0.06 µg/mL (≈ 0.141 µM)
MIC (S. aureus SA0085; SA0085, read-out: MIC values): > 64 µg/mL

CN(C)c1cc(NC(=O)CNC(C)(C)C)c(O)c2c1C[C@H]1C[C@H]3[C@H](N(C)C)C(O)=C(C(N)=O)C(=O)[C@@]3(O)C(O)=C1C2=O [Tigecycline]
MIC (S. aureus ATCC 29213; [1]): 0.03 µg/mL (≈ 0.0512 µM)
MIC (S. aureus ATCC 29213; [7]): 0.016 µg/mL (≈ 0.0273 µM)
MIC (S. aureus ATCC 29213; [8]): 0.06 µg/mL (≈ 0.102 µM)
MIC (S. aureus SA0077; SA0077, read-out: MIC values): 0.25 µg/mL (≈ 0.427 µM)
MIC (S. aureus SA0077; [2]): 0.06 µg/mL (≈ 0.102 µM)
MIC (S. aureus SA0077; [3]): 0.06 µg/mL (≈ 0.102 µM)
MIC (S. aureus SA0077; [4]): 0.06 µg/mL (≈ 0.102 µM)
MIC (S. aureus SA0736; SA0736, read-out: MIC values): 0.06 µg/mL (≈ 0.102 µM)
MIC (S. aureus SA0736; [9]): 0.125 µg/mL (≈ 0.213 µM)
MIC (S. aureus SA0422; SA0422, read-out: MIC values): 0.125 µg/mL (≈ 0.213 µM)
MIC (S. aureus SA0422; [5]): 0.06 µg/mL (≈ 0.102 µM)
MIC (S. aureus SA0085; SA0085, read-out: MIC values): 0.125 µg/mL (≈ 0.213 µM)

CNC(C)C1CCC(N)C(OC2C(N)CC(N)C(OC3OCC(C)(O)C(NC)C3O)C2O)O1 (centres unmarked) [Gentamicin]
MIC (S. aureus ATCC 29213; [1]): 1 µg/mL (≈ 2.09 µM)
MIC (S. aureus ATCC 29213; [7]): 0.25 µg/mL (≈ 0.523 µM)
MIC (S. aureus SA0077; SA0077, read-out: MIC values): > 128 µg/mL
MIC (S. aureus SA0736; SA0736, read-out: MIC values): > 128 µg/mL
MIC (S. aureus SA0422; SA0422, read-out: MIC values): > 128 µg/mL
MIC (S. aureus SA0085; SA0085, read-out: MIC values): > 128 µg/mL

CC(=O)NC[C@H]1CN(c2ccc(N3CCOCC3)c(F)c2)C(=O)O1 [Linezolid]
MIC (S. aureus ATCC 29213; [1]): 2 µg/mL (≈ 5.93 µM)
MIC (S. aureus ATCC 29213; [7]): 1 µg/mL (≈ 2.96 µM)
MIC (S. aureus SA0077; SA0077, read-out: MIC values): 1 µg/mL (≈ 2.96 µM)
MIC (S. aureus SA0736; SA0736, read-out: MIC values): 1 µg/mL (≈ 2.96 µM)
MIC (S. aureus SA0736; [9]): 2 µg/mL (≈ 5.93 µM)
MIC (S. aureus SA0422; SA0422, read-out: MIC values): 2 µg/mL (≈ 5.93 µM)
MIC (S. aureus SA0422; [5]): 1 µg/mL (≈ 2.96 µM)
MIC (S. aureus SA0085; SA0085, read-out: MIC values): 4 µg/mL (≈ 11.9 µM)
MIC (S. aureus SA0085; [6]): 1 µg/mL (≈ 2.96 µM)

O=C(O)c1cn(C2CC2)c2cc(N3CCNCC3)c(F)cc2c1=O [Ciprofloxacin]
MIC (S. aureus ATCC 29213; [1]): 0.25 µg/mL (≈ 0.754 µM)
MIC (S. aureus SA0077; SA0077, read-out: MIC values): 16 µg/mL (≈ 48.3 µM)
MIC (S. aureus SA0077; [2]): 32 µg/mL (≈ 96.6 µM)
MIC (S. aureus SA0077; [4]): 64 µg/mL (≈ 193 µM)
MIC (S. aureus SA0736; SA0736, read-out: MIC values): 128 µg/mL (≈ 386 µM)
MIC (S. aureus SA0736; SA0736, read-out: MIC values, Table S1: SA0736 DAP-W (40 passages on daptomycin, white colonies)): 64 µg/mL (≈ 193 µM)
MIC (S. aureus SA0736; SA0736, read-out: MIC values, Table S1: SA0736 DAP-Y (40 passages on daptomycin, yellow colonies)): 32 µg/mL (≈ 96.6 µM)
MIC (S. aureus SA0736; [9]): 16 µg/mL (≈ 48.3 µM)
MIC (S. aureus SA0422; SA0422, read-out: MIC values): 128 µg/mL (≈ 386 µM)
MIC (S. aureus SA0422; [5]): 32 µg/mL (≈ 96.6 µM)
MIC (S. aureus SA0422; [10]): 64 µg/mL (≈ 193 µM)
MIC (S. aureus SA0085; SA0085, read-out: MIC values): 256 µg/mL (≈ 773 µM)
MIC (S. aureus SA0085; [6]): 32 µg/mL (≈ 96.6 µM)

CN(C)[C@@H]1C(O)=C(C(N)=O)C(=O)[C@@]2(O)C(O)=C3C(=O)c4c(O)cccc4[C@@](C)(O)[C@H]3C[C@@H]12 [Tetracycline]
MIC (S. aureus ATCC 29213; [1]): 0.125 µg/mL (≈ 0.281 µM)
MIC (S. aureus ATCC 29213; [7]): 0.06 µg/mL (≈ 0.135 µM)
MIC (S. aureus ATCC 29213; [8]): 0.5 µg/mL (≈ 1.13 µM)
MIC (S. aureus SA0077; SA0077, read-out: MIC values): 0.06 µg/mL (≈ 0.135 µM)
MIC (S. aureus SA0736; SA0736, read-out: MIC values): 16 µg/mL (≈ 36 µM)
MIC (S. aureus SA0422; SA0422, read-out: MIC values): 0.06 µg/mL (≈ 0.135 µM)
MIC (S. aureus SA0422; [10]): 0.125 µg/mL (≈ 0.281 µM)
MIC (S. aureus SA0085; SA0085, read-out: MIC values): 32 µg/mL (≈ 72 µM)
MIC (S. aureus SA0085; SA0085, read-out: MIC values, Table S1: SA0085 DAP (derivative after 40 passages on daptomycin)): 16 µg/mL (≈ 36 µM)
MIC (S. aureus SA0085; [6]): 0.125 µg/mL (≈ 0.281 µM)
